Laboratory results taken from paper PMC7905067, “Design and Immunological Evaluation of a Hybrid Peptide as a Potent TLR2 Agonist by Structure-Based Virtual Screening” (Frontiers in Cell and Developmental Biology, 2021).
Like-named read-outs stand apart in the source and are kept apart here.

Key:
[1] = tested on: CTX-immunosuppressed murine model; test: Body weight and immune organ indices in CTX-immunosuppressed mice; assay type: in vivo, BALB/c mice; conditions: CTX 80 mg/kg i.p. 3 days, peptide 10 mg/kg i.p. days 4-10, n = 12; for bodyweight: CTX group vs control
Description: BALB/c mice (female, 6–8 weeks; Charles River, Beijing, China) used in this study were maintained in a specific-pathogen-free facility (55 ± 10% humidity and 22 ± 1°C) during the experiments. These experiments were conducted with approval from the Institutional Animal Care and Use Committee of China Agricultural University (certificate of the Beijing Laboratory Animal employee, ID: 18086).
(§1) After a 7-day adaptation period, the mice were randomly divided into five groups (n = 12 in each group): (1) control group: physiological saline was injected intraperitoneally once daily; (2) cyclophosphamide (CTX) group: CTX (80 mg/kg mouse weight; Sigma-Aldrich, St. Louis, MO, United States) was injected intraperitoneally once daily for the first 3 days. […] From days 4 to 10, peptide (10 mg/kg mouse weight) was injected intraperitoneally into mice once daily. Twenty-four hours after the last drug administration, all the mice were weighed and then euthanized, and their tissues and blood were collected for further study. The body weight index was calculated according to the formula:
Index(%)=finalbodyweight-initalbodyweight/initialbodyweight×100
The thymus and spleen indices were measured by the following formula:
Index(mg/g)=weightofthymusorspleen/bodyweight

[2] = tested on: T lymphocyte subpopulations (CD4 +, CD8 +), mouse peripheral blood; test: Peripheral blood T lymphocyte subpopulations by flow cytometry; assay type: in vivo, BALB/c mice; conditions: CTX 80 mg/kg i.p. 3 days; peptide 10 mg/kg i.p. days 4-10; three biological replicates
Description: as §1, with “formula: […]” for “formula:”
Erythrocytes were aseptically obtained from the different groups of mouse peripheral blood and lysed with RBC lysis buffer. The remaining cells were washed with PBS and resuspended in PBS. The cells were combined with peridinin-chlorophyll-protein complex (PerCP)-conjugated anti-mouse CD3 +, allophycocyanin (APC)-conjugated anti-mouse CD4 +, and fluorescein isothiocyanate (FITC)-conjugated anti-mouse CD8 + (BD Pharmingen, United States) for 30 min at 4°C. The T lymphocyte subpopulations were analyzed by flow cytometry.

[3] = tested on: TLR2-NF-κB signaling pathway; test: Western blot of TLR2-NF-κB signaling pathway; assay type: in vivo, BALB/c mice; conditions: proteins from serum, three independent experiments
Description: as §1, with “formula: […]” for “formula:”
Whole proteins were extracted from the serum using a whole-protein extraction kit (Nanjing KeyGEN Biotech, Nanjing, China). The protein concentrations were determined with the BCA Assay (KeyGEN Biotech, Nanjing, China) according to the manufacturer’s instructions. Equivalent amounts of protein were separated by SDS-PAGE and blotted onto polyvinylidene fluoride membranes (Bio-Rad). […]

[4] = tested on: MHC class II, mouse PBMCs; test: DC maturation: MHC-II expression by flow cytometry; assay type: in vivo, BALB/c mice; conditions: CTX 80 mg/kg i.p. 3 days; peptide 10 mg/kg i.p. days 4-10; three biological replicates
Description: as §1, with “formula: […]” for “formula:”
Mouse peripheral blood mononuclear cells (PBMCs) were obtained from the different groups of mice through Ficoll density gradient centrifugation. The cells were resuspended in PBS with 5% FBS and incubated with 10% (v/v) normal goat serum for 15 min at 4°C. The cells were combined with FITC-conjugated antibodies specific for MHC class II (MHC-II; BD Pharmingen, United States). The surface expression of MHC-II was determined by flow cytometry.

[5] = tested on: serum TNF-α, IL-6, and IL-1β; test: Serum cytokines by ELISA in CTX-treated mice; assay type: in vivo, BALB/c mice; conditions: CTX 80 mg/kg i.p. 3 days, peptide 10 mg/kg i.p. days 4-10, three biological replicates
Description: as §1, with “formula: […]” for “formula:”
(§2) Serum was collected from blood and then assayed by ELISA kits according to the protocol supplied by the manufacturer (eBioscience, San Diego, United States) to determine the secretion of IgG, IgA, IgM, TNF-α, IL-6, and IL-1β.

[6] = tested on: serum IgA, IgG, and IgM; test: Serum immunoglobulins by ELISA in CTX-treated mice; assay type: in vivo, BALB/c mice; conditions: CTX 80 mg/kg i.p. 3 days, peptide 10 mg/kg i.p. days 4-10, three biological replicates
Description: as §1, with “formula: […]” for “formula:”
as §2

[7] = tested on: immunoregulatory mediators, proinflammatory cytokines, and chemokines; design: method as in 4 sources, ref Scott et al., 2002; Tjabringa et al., 2003; Bowdish et al., 2004 ||| ref Mookherjee et al., 2006; Molhoek et al., 2009 ||| ref Li et al., 2006; Tan et al., 2017 ||| ref Wei et al., 2018; conditions: cited from earlier work
[8] = tested on: RAW264.7 cells; test: In vitro immunomodulatory activity: cytokine secretion by RAW264.7 cells (ELISA); assay type: cell-based, murine; conditions: 10 μg/mL, 12 h, 37°C, ELISA; three independent experiments
Description: RAW264.7 cells were seeded at a density of 1.0 × 10^6 cell/mL and treated with (10 μg/mL) or without peptides in each well of a 6-well plate for 12 h at 37°C in a humidified incubator with 5% CO2. After treatment, TNF-α, IL-6 and IL-1β secretion in the cell supernatants was assessed using ELISA kits according to the manufacturer’s instructions.

[9] = ref Anders et al., 2018; cited from earlier work
[10] = cited from earlier work
Text: TP5 plays a vitally important role in the process of immune enhancement.

[11] = tested on: TLR2; conditions: cited from earlier work
Text: Therefore, LL-37 could prevent or attenuate immunosuppression.

[12] = tested on: thymic atrophy; design: method as in Goldstein et al., 1979; Singh et al., 1998; conditions: ref Goldstein et al., 1979; Singh et al., 1998; cited from earlier work
[13] = tested on: TLR2, RAW264.7 cells; test: TLR2 blocking experiment (anti-mouse TLR2 C9A12, then LTPa); assay type: cell-based; conditions: LTPa 10 μg/mL, 24 h; with or without TLR2 mAb (C9A12) 1 h before; ELISA
Description: For TLR2 blocking experiments, RAW264.7 cells were cultured in 24-well plates overnight at 37°C. The mouse IgG2a isotype control antibody or anti-mouse TLR2 (C9A12; InvivoGen, San Diego, CA, United States) was added to the cell cultures 1 h before being treated with LTPa for 24 h at 37°C. Then, the levels of TNF-α, IL-6, and IL-1β in the culture supernatant were analyzed.

**Q.** Which results are given for `O=P1(N(CCCl)CCCl)NCCCO1` (centres unmarked) [CTX, cyclophosphamide, reference compound]?
**A.** spleen index [1]: significantly decreased; thymus index [1]: significantly decreased; bodyweight [1]: significant decrease in the bodyweight; proportions of CD4 + and CD8 + T lymphocytes [2]: remarkably reduced the proportions of CD4 + and CD8 + T lymphocytes; expression levels of TLR2, MyD88, and TRAF6 [3]: significantly decreased the expression levels of TLR2, MyD88, and TRAF6; phosphorylation of IKK-β, IκB-α, and NF-κB [3]: significantly decreased; expression of MHC-II [4]: significantly decreased; serum IL-1β level [5]: significantly decreased; serum IL-6 level [5]: significantly decreased; serum TNF-α level [5]: significantly decreased; serum IgA level [6]: significantly reduced; serum IgG level [6]: significantly reduced; serum IgM level [6]: significantly reduced

**Q.** With “FKRIVQRI KDFLR [LL-37 (17–29), characteristic fragment of LL-37]” as the compound, how does the immunoregulatory activity ([7]; ref Li et al., 2006, Tan et al., 2017) read?
**A.** The immunoregulatory activity was “robust immunoregulatory activity”.

**Q.** For “FKRIVQRIKDFLRRKDVT [LTPb, hybrid peptide combining LL-37b and TP5]”, which IL-1β secretion [8] is on record?
**A.** Its IL-1β secretion is “remarkable increases”.

**Q.** What about the IL-6 secretion [8] of the same compound?
**A.** The IL-6 secretion was “remarkable increases”.

**Q.** What about the TNF-α secretion [8] of the same compound?
**A.** The TNF-α secretion was “remarkable increases”.

**Q.** With “IGKEFKRIV QRIKDFLRNL [LL-37 (13–31), characteristic fragment of LL-37]” as the compound, how does the immunoregulatory activity ([7]; ref Wei et al., 2018) read?
**A.** Its immunoregulatory activity is “robust immunoregulatory activity”.

**Q.** With “IGKEFKRIVQRIKDFLRNLRKDVT [LTPc, hybrid peptide combining LL-37c and TP5]” as the compound, how does the IL-1β secretion [8] read?
**A.** Its IL-1β secretion is “remarkable increases”.

**Q.** And the IL-6 secretion [8]?
**A.** The IL-6 secretion was “remarkable increases”.

**Q.** And the TNF-α secretion [8]?
**A.** Its TNF-α secretion is “remarkable increases”.

**Q.** With “IGKEFKRIVQRIKDFLRNLVPRTE [LL-37 (13–36), characteristic fragment of LL-37]” as the compound, how does the immunoregulatory activity ([7]; ref Mookherjee et al., 2006, Molhoek et al., 2009) read?
**A.** Its immunoregulatory activity is “robust immunoregulatory activity”.

**Q.** What does the source list for “LLGDFFRKSKEKIGKEFKRIVQRIKDFLRNLVPRTES [LL-37, human cationic host-defense peptide; parental peptide]”?
**A.** cytotoxicity [9]: hampered by its cytotoxicity; production of immunoregulatory mediators, proinflammatory cytokines, and chemokines ([7]; ref Scott et al., 2002, Tjabringa et al., 2003, Bowdish et al., 2004): stimulates the production of various immunoregulatory mediators, proinflammatory cytokines, and chemokines; half-life ([10]; ref not separately given (sentence cites Anders et al., 2018)): long half-life; bodyweight [1]: improved bodyweight rapidly; innate immune response by binding to TLR2 ([11]; ref Mansour et al., 2014, Zhang et al., 2016, Agier et al., 2018): robust innate immune response by binding to TLR2

**Q.** With “RKDVT FKRIVQRIKDFLR [TPLb, hybrid peptide combining TP5 and LL-37b]” as the compound, how does the IL-1β secretion [8] read?
**A.** Its IL-1β secretion is “no significant increases”.

**Q.** What about the IL-6 secretion [8] of the same compound?
**A.** Its IL-6 secretion is “no significant increases”.

**Q.** And the TNF-α secretion [8]?
**A.** Its TNF-α secretion is “no significant increases”.

**Q.** With “RKDVT [TP5, Thymopentin, Arg32–Tyr36 fragment derived from thymopoietin; parental peptide]” as the compound, how does the half-life [10] read?
**A.** The half-life was “short half-life”.

**Q.** What about the bodyweight [1] of the same compound?
**A.** Its bodyweight is “improved bodyweight rapidly”.

**Q.** And the “restoration of thymic atrophy” value [12]?
**A.** Its value is “able to restore the thymic atrophy induced by immunosuppressants”.

**Q.** And the TLR2 binding ([11]; ref Li et al., 2013)?
**A.** Its TLR2 binding is “exert its immunoregulatory activity by binding TLR2”.

**Q.** With “RKDVTIGKEFKRIVQRIKDFLRNL [TPLc, hybrid peptide combining TP5 and LL-37c]” as the compound, how does the IL-1β secretion [8] read?
**A.** Its IL-1β secretion is “no significant increases”.

**Q.** What about the IL-6 secretion [8] of the same compound?
**A.** The IL-6 secretion was “no significant increases”.

**Q.** What about the TNF-α secretion [8] of the same compound?
**A.** The TNF-α secretion was “no significant increases”.

**Q.** What does the source list for “RKDVTIGKEFKRIVQRIKDFLRNLVPRTE [TPLa, hybrid peptide combining TP5 and LL-37a]”?
**A.** IL-1β secretion [8]: no significant increases; IL-6 secretion [8]: no significant increases; TNF-α secretion [8]: no significant increases

**Q.** Which “TNF-α, IL-6, and IL-1β production” value [13] does the source give for “TLR2 mAb: anti-mouse TLR2 (C9A12; InvivoGen) [reference compound]” here?
**A.** Its value is “significantly inhibited the TNF-α, IL-6, and IL-1β production induced by LTPa”.
